IC50 data for 57 molecules are collected here from patent publication US20230382904A1, “SUBSTITUTED 4-([1,2,4]TRIAZOLO[1,5-a]PYRIDIN-6-YL)THIOPHENE-2-CARBOXAMIDE DERIVATIVES AND USE THEREOF” (The Johns Hopkins University, priority 2020, published 2023).

One experiment concerns the target DLK (Homo sapiens (Human), UniProt Q12852). In words: DLK biochemical assay (TR-FRET, MKK7 phosphorylation). An outline of the steps:
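TR-FRET ratio (665/Eu) reports MKK7 T275/S277 phosphorylation, lowered by DLK inhibition. Reaction: 60 μM ATP, 15 nM MKK7, 10 nM DLK catalytic domain, 90 min room temperature; detection incubation 16 h, 37° C. (1536-well) or 4° C. (384-well). Final concentrations.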

The target in the next experiment is LZK (Homo sapiens (Human), UniProt O43283). In words: LZK biochemical assay (TR-FRET, MKK7 phosphorylation). An outline of the steps:
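Readout is the HTRF ratio (XL665/Eu) from an EDTA-containing detection mix of 0.4 nM Eu-anti-phospho-MKK7 (T275/S277) and 20 nM XL665-anti-His, incubated 16 h at 32° C. This followed a 90 min RT reaction of 10 nM LZK catalytic domain, 15 nM MKK7 and 15 μM ATP at pH 7.5.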
A general note: In TR-FRET formats the signal depends on donor and acceptor labels being close together.

pIC50: −log10 of the molar value.

LZK, sequence (O43283 168-409): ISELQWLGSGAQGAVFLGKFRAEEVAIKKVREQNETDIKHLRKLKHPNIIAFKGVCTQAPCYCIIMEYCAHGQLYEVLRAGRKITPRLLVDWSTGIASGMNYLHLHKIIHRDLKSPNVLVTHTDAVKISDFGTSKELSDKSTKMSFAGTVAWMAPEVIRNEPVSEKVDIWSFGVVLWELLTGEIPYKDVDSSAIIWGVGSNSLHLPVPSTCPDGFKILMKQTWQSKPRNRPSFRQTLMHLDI
DLK, sequence (Q12852 1-520): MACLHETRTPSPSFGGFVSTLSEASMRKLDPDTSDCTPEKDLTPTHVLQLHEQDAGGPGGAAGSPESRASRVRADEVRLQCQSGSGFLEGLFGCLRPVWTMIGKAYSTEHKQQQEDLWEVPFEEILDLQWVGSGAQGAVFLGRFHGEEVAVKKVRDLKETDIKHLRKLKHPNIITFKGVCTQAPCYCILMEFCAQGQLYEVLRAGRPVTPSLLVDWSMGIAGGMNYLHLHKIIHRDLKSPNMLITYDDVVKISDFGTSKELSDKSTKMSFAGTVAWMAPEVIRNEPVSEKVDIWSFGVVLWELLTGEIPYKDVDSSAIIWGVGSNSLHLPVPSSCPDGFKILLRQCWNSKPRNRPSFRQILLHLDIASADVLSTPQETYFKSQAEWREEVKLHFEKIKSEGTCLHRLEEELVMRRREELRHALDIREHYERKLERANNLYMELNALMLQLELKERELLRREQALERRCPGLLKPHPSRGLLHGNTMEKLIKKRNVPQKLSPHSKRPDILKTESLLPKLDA

Turning to `COc1ccc(CNC(=O)c2cc(-c3ccc4nc(N)nn4c3)cs2)cc1OC` [Compound 202], the pIC50 (in general, the negative decadic logarithm of the IC50, by convention in mol/L) against DLK was 6.09; on LZK, less than 4.52.

As for `COc1ccc(CNC(=O)c2cc(-c3ccc4nc(N)nn4c3)cs2)cc1` [Compound 203], the pIC50 is 6.00 against DLK and 4.89 on LZK.

`Nc1nc2ccc(-c3csc(C(=O)NCc4cccc(OCC(F)(F)F)c4)c3)cn2n1` [Compound 204]: the values for the pIC50 against DLK and against LZK were 6.52 and less than 4.52, respectively.

As to `Nc1nc2ccc(-c3csc(C(=O)NCc4cccc(OC5CC5)c4)c3)cn2n1` [Compound 205], the pIC50 was 6.64 at DLK and 4.92 at LZK.

For the molecule `Nc1nc2ccc(-c3csc(C(=O)NCc4cccnc4)c3)cn2n1` [Compound 206], the pIC50 at DLK was 6.26; against LZK, 4.55.

On to `Nc1nc2ccc(-c3csc(C(=O)NCc4cccc(OCCN5CCOCC5)c4)c3)cn2n1` [Compound 207], for which the pIC50 against DLK is 6.33; on LZK it was 4.57.

As for `Nc1nc2ccc(-c3csc(C(=O)NCC4COCCO4)c3)cn2n1` (stereo not drawn) [Compound 209], the pIC50 against DLK is 5.60; on LZK, less than 4.52.

`Nc1nc2ccc(-c3csc(C(=O)NCCc4ccccc4)c3)cn2n1` [Compound 211]: the pIC50 at DLK is 6.01; against LZK, 4.74.

For the molecule `Nc1nc2ccc(-c3csc(C(=O)NCc4ccc(F)c(F)c4)c3)cn2n1` [Compound 212], the pIC50 against DLK is 5.97; at LZK, 5.02.

Consider `COc1cccc(CN(C)C(=O)c2cc(-c3ccc4nc(N)nn4c3)cs2)c1` [Compound 213], for which the results for the pIC50 at DLK and against LZK were 5.61 and 5.12, respectively.

In the case of `CN1CCO[C@H](CNC(=O)c2cc(-c3ccc4nc(N)nn4c3)cs2)C1` [Compound 214], the pIC50 against DLK was 5.76; on LZK it was 4.60.

Turning to `Nc1nc2ccc(-c3csc(C(=O)NCCCc4ccccc4)c3)cn2n1` [Compound 215], the results for the pIC50 against DLK and against LZK were 6.14 and 4.52, respectively.

As to `Nc1nc2ccc(-c3csc(C(=O)NCc4cccc(F)c4)c3)cn2n1` [Compound 216], the results for the pIC50 against DLK and at LZK were 5.94 and 5.23, respectively.

With `Nc1nc2ccc(-c3csc(C(=O)NCc4ccccc4Cl)c3)cn2n1` [Compound 219], the negative logarithm of the IC50 (pIC50) was 6.30 against DLK and 5.51 at LZK.

For the molecule `Nc1nc2ccc(-c3csc(C(=O)NCc4ccccc4C(F)(F)F)c3)cn2n1` [Compound 220], the results for the pIC50 at DLK and against LZK were 6.24 and 4.66, respectively.

Consider `Nc1nc2ccc(-c3csc(C(=O)NCc4c(F)cccc4F)c3)cn2n1` [Compound 221], for which the pIC50 was 5.91 at DLK and 5.04 on LZK.

Take `Nc1nc2ccc(-c3csc(C(=O)NCc4cc(F)cc(F)c4)c3)cn2n1` [Compound 222]: the figures for the pIC50 on DLK and on LZK were 5.86 and 5.24, respectively.

Turning to `Cc1cccc(CNC(=O)c2cc(-c3ccc4nc(N)nn4c3)cs2)c1C` [Compound 223], the pIC50 is 6.19 on DLK and 4.64 against LZK.

In the case of `Nc1nc2ccc(-c3csc(C(=O)Nc4ccccc4Cl)c3)cn2n1` [Compound 224], the pIC50 was 5.78 against DLK and less than 4.52 at LZK.

As to `Nc1nc2ccc(-c3csc(C(=O)NCc4ccc(Cl)cc4)c3)cn2n1` [Compound 225], the pIC50 against DLK was 6.15; against LZK, 5.16.

In the case of `CCOc1ccccc1CNC(=O)c1cc(-c2ccc3nc(N)nn3c2)cs1` [Compound 226], the pIC50 is 6.17 at DLK and 5.30 on LZK.

With `Cc1ccccc1NC(=O)c1cc(-c2ccc3nc(N)nn3c2)cs1` [Compound 227], the pIC50 against DLK is 6.08; on LZK it was less than 4.52.

In the case of `COc1ccccc1NC(=O)c1cc(-c2ccc3nc(N)nn3c2)cs1` [Compound 228], the values for the pIC50 on DLK and against LZK were 6.32 and less than 4.52, respectively.

Take `CN1CCCCC1CNC(=O)c1cc(-c2ccc3nc(N)nn3c2)cs1` (stereo not drawn) [Compound 230]: the pIC50 at DLK is 5.60; against LZK it was 4.55.

On to `COc1cc(CNC(=O)c2cc(-c3ccc4nc(N)nn4c3)cs2)ccc1F` [Compound 231], for which the pIC50 was 6.07 on DLK and 4.96 at LZK.

With `COc1cccc(C(C)NC(=O)c2cc(-c3ccc4nc(N)nn4c3)cs2)c1` (stereo not drawn) [Compound 232], the pIC50 against DLK is 6.70; against LZK it was 4.60.

In the case of `Cc1cccc(C)c1NC(=O)c1cc(-c2ccc3nc(N)nn3c2)cs1` [Compound 233], the figures for the pIC50 against DLK and on LZK were 6.36 and 4.77, respectively.

For the molecule `COc1cc(CNC(=O)c2cc(-c3ccc4nc(N)nn4c3)cs2)ccn1` [Compound 234], the pIC50 is 6.33 on DLK and 4.74 at LZK.

Regarding `COc1cncc(CNC(=O)c2cc(-c3ccc4nc(N)nn4c3)cs2)c1` [Compound 235], the values for the pIC50 against DLK and at LZK were 6.43 and 4.64, respectively.

Turning to `N#Cc1cccc(CNC(=O)c2cc(-c3ccc4nc(N)nn4c3)cs2)c1` [Compound 236], the results for the pIC50 against DLK and against LZK were 6.50 and less than 4.52, respectively.

For `COc1cc(CNC(=O)c2cc(-c3ccc4nc(N)nn4c3)cs2)cc(OC)c1` [Compound 238], the pIC50 is 6.57 on DLK and less than 4.52 against LZK.

On to `Nc1nc2ccc(-c3csc(C(=O)NCc4ncco4)c3)cn2n1` [Compound 239], for which the pIC50 against DLK was 5.73; on LZK, 4.74.

In the case of `Cc1csc(CNC(=O)c2cc(-c3ccc4nc(N)nn4c3)cs2)n1` [Compound 240], the pIC50 at DLK is 6.19; against LZK it was 5.20.

Turning to `Cn1ccnc1CNC(=O)c1cc(-c2ccc3nc(N)nn3c2)cs1` [Compound 241], the pIC50 against DLK is 5.89; against LZK, 4.68.

Regarding `Cn1ccc(CNC(=O)c2cc(-c3ccc4nc(N)nn4c3)cs2)n1` [Compound 242], the figures for the pIC50 at DLK and against LZK were 5.74 and 4.72, respectively.

As to `Cc1cn(C)nc1CNC(=O)c1cc(-c2ccc3nc(N)nn3c2)cs1` [Compound 243], the pIC50 is 5.82 against DLK and 4.77 against LZK.

Take `Nc1nc2ccc(-c3csc(C(=O)NCc4nc(C(F)(F)F)cs4)c3)cn2n1` [Compound 245]: the pIC50 against DLK is 5.89; on LZK, less than 4.52.

Consider `Nc1nc2ccc(-c3csc(C(=O)NCc4nc5ccccc5o4)c3)cn2n1` [Compound 246], for which the pIC50 on DLK is 5.94; at LZK, 5.36.

Consider `COc1ccc2oc(CNC(=O)c3cc(-c4ccc5nc(N)nn5c4)cs3)nc2c1` [Compound 247], for which the pIC50 is 6.10 at DLK and 5.42 against LZK.

As for `CC(C)c1csc(CNC(=O)c2cc(-c3ccc4nc(N)nn4c3)cs2)n1` [Compound 249], the pIC50 against DLK is 6.13; at LZK it was 5.12.

Turning to `Nc1nc2ccc(-c3csc(C(=O)NCc4cnc(Cl)s4)c3)cn2n1` [Compound 250], the pIC50 on DLK is 6.03; against LZK, 5.35.

Turning to `Cn1cnc(CNC(=O)c2cc(-c3ccc4nc(N)nn4c3)cs2)c1` [Compound 251], the pIC50 against DLK was 5.71; against LZK, 5.04.

With `COc1cccc(CNC(=O)c2cc(-c3ccc4nc(N)nn4c3)cs2)n1` [Compound 254], the figures for the pIC50 against DLK and against LZK were 6.00 and 5.00, respectively.

On to `Cn1nccc1CNC(=O)c1cc(-c2ccc3nc(N)nn3c2)cs1` [Compound 255], for which the pIC50 on DLK was 5.70; against LZK, 5.36.

Turning to `COc1ccnc(CNC(=O)c2cc(-c3ccc4nc(N)nn4c3)cs2)c1` [Compound 256], the pIC50 against DLK was 5.80; on LZK it was 4.77.

For the molecule `Nc1nc2ccc(-c3csc(C(=O)NCc4cn5ccccc5n4)c3)cn2n1` [Compound 257], the pIC50 on DLK is 5.96; against LZK, less than 4.52.

For the molecule `COc1ccc2c(c1)nc(CNC(=O)c1cc(-c3ccc4nc(N)nn4c3)cs1)n2C` [Compound 260], the pIC50 at DLK was 5.92; on LZK, less than 4.52.

For `Nc1nc2ccc(-c3csc(C(=O)NCc4cnc5ccccn45)c3)cn2n1` [Compound 261], the pIC50 against DLK is 6.29; against LZK it was 4.85.

With `COc1cccc([C@H](C)NC(=O)c2cc(-c3ccc4nc(N)nn4c3)cs2)c1` [Compound 263], the pIC50 at DLK was 6.45; against LZK, less than 4.52.

As for `COc1cccc([C@@H](C)NC(=O)c2cc(-c3ccc4nc(N)nn4c3)cs2)c1` [Compound 264], the pIC50 against DLK was 6.30; at LZK it was less than 4.52.

Regarding `C[C@H](NC(=O)c1cc(-c2ccc3nc(N)nn3c2)cs1)c1cccc(Cl)c1` [Compound 265], the figures for the pIC50 against DLK and on LZK were 6.89 and less than 4.52, respectively.

In the case of `C[C@@H](NC(=O)c1cc(-c2ccc3nc(N)nn3c2)cs1)c1cccc(Cl)c1` [Compound 267], the pIC50 is 6.59 against DLK and less than 4.52 on LZK.

Take `COc1ccc2c(c1)C(NC(=O)c1cc(-c3ccc4nc(N)nn4c3)cs1)CC(C)(C)O2` (stereo not drawn) [Compound 268]: the values for the negative-log IC50 (pIC50) against DLK and at LZK were 6.74 and 4.66, respectively.

Turning to `COc1cccc(C(C)(C)NC(=O)c2cc(-c3ccc4nc(N)nn4c3)cs2)c1` [Compound 269], the pIC50 on DLK was 6.23; on LZK it was less than 4.52.

For the molecule `CCNC(=O)c1cc(-c2ccc3nc(N)nn3c2)cs1` [Compound 270], the pIC50 against DLK was 5.46; at LZK, less than 4.52.

Consider `COCCCNC(=O)c1cc(-c2ccc3nc(N)nn3c2)cs1` [Compound 271], for which the pIC50 against DLK was 5.46; on LZK, less than 4.52.

On to `COC1CCC(NC(=O)c2cc(-c3ccc4nc(N)nn4c3)cs2)C1` (stereo not drawn) [Compound 272], for which the figures for the pIC50 at DLK and against LZK were 5.82 and less than 4.52, respectively.
